According to patent US20240228504A1, “SUBSTITUTED TRICYCLIC AMIDES, ANALOGUES THEREOF, AND METHODS USING SAME” (Arbutus Biopharma Corporation, priority 2020, published 2024):
Where two headings read alike, the source gives them in different places.

Test system: HBV rcDNA in HepDE19 cells
Experiment: HepDE19 assay with bDNA quantitation of HBV rcDNA
Assay type: cell-based, hepatitis B virus
Conditions: inhibition of rcDNA formation, bDNA quantitation, read-out: DE-19bDNA EC50
[1] = Hepatitis B virus, HepDE19, HepDE19 assay

SMILES | EC50 [1] [nM] | EC50 (HepDE19 assay) [nM]
CN(C(=O)c1cccc(C(C)(C)O)c1)[C@@H]1COCc2[nH]c(=O)c3cc(F)c(F)cc3c21 [Compound 155, (S)-N-(8,9-Difluoro-6-oxo-1,4,5,6-tetrahydro-2H-pyrano[3,4-c]isoquinolin-1-yl)-3-(2-hydroxypropan-2-yl)-N-methylbenzamide] | 4490 | 
CN(C(=O)c1cn2cc(Cl)ccc2n1)[C@@H]1COCc2[nH]c(=O)c3cc(F)ccc3c21 [Compound 52, (S)-6-Chloro-N-(8-fluoro-6-oxo-1,4,5,6-tetrahydro-2H-pyrano[3,4-c]isoquinolin-1-yl)-N-methylimidazo[1,2-a]pyridine-2-carboxamide] | 4100 | 
CN(C(=O)[C@H](O)Cc1ccccc1)[C@@H]1COCc2[nH]c(=O)c3cc(F)c(F)cc3c21 [Compound 88, (R)-N-((S)-8,9-Difluoro-6-oxo-1,4,5,6-tetrahydro-2H-pyrano[3,4-c]isoquinolin-1-yl)-2-hydroxy-N-methyl-3-phenylpropanamide] | 480 | 
CN(C(=O)c1cc2ccccc2[nH]1)C1CN(CCO)Cc2[nH]c(=O)c3cc(F)c(F)cc3c21 (single isomer, unassigned) [Compound 89, N-(8,9-Difluoro-3-(2-hydroxyethyl)-6-oxo-1,2,3,4,5,6-hexahydrobenzo[c][1,7]naphthyridin-1-yl)-N-methyl-1H-indole-2-carboxamide] |  | 7900
CC(O)c1cc(F)cc2[nH]c(C(=O)N(C)[C@@H]3COCc4[nH]c(=O)c5cc(F)c(F)cc5c43)cc12 (single isomer, unassigned) [Compound 353] |  | 60
CN([C@@H]1COCc2[nH]c(=O)c3cc(F)c(F)cc3c21)S(=O)(=O)c1ccc(F)c(C#N)c1 [Compound 146, (S)-3-Cyano-N-(8,9-difluoro-6-oxo-1,4,5,6-tetrahydro-2H-pyrano[3,4-c]isoquinolin-1-yl)-4-fluoro-N-methylbenzenesulfonamide] | 23000 | 
CN(C(=O)c1ccc2scnc2c1)C1CNCc2[nH]c(=O)c3cc(F)c(F)cc3c21 (single isomer, unassigned) [Compound 463, N-(8,9-difluoro-6-oxo-1,2,3,4,5,6-hexahydrobenzo[c][1,7]naphthyridin-1-yl)-N-methylbenzo[d]thiazole-5-carboxamide] | 2000 | 
CN(C(=O)c1cc2ccccc2[nH]1)C1CNCc2[nH]c(=O)c3cc(F)ccc3c21 (single isomer, unassigned) [Compound 78, N-(8-Fluoro-6-oxo-1,2,3,4,5,6-hexahydrobenzo[c][1,7]naphthyridin-1-yl)-N-methyl-1H-indole-2-carboxamide] |  | 8100
CN(C(=O)C(F)(F)c1cccc(Br)c1)[C@@H]1COCc2[nH]c(=O)c3cc(F)c(F)cc3c21 [Compound 252, (S)-2-(3-Bromophenyl)-N-(8,9-difluoro-6-oxo-1,4,5,6-tetrahydro-2H-pyrano[3,4-c]isoquinolin-1-yl)-2,2-difluoro-N-methylacetamide] | 7700 | 
CN(C(=O)c1cc2ccc(C(F)F)cn2c1)C1CNCc2[nH]c(=O)c3cc(F)c(F)cc3c21 (single isomer, unassigned) [Compound 387, N-(8,9-Difluoro-6-oxo-1,2,3,4,5,6-hexahydrobenzo[c][1,7]naphthyridin-1-yl)-6-(difluoromethyl)-N-methylindolizine-2-carboxamide] |  | 11000
CN(C(=O)c1cc(F)c(C(F)F)c(F)c1)C1CNCc2[nH]c(=O)c3cc(F)ccc3c21 (single isomer, unassigned) [Compound 185, 4-(Difluoromethyl)-3,5-difluoro-N-(8-fluoro-6-oxo-1,2,3,4,5,6-hexahydrobenzo[c][1,7]naphthyridin-1-yl)-N-methylbenzamide] |  | 24000
CN(C(=O)c1cc2ccc(Cl)cn2c1)C1CNCc2[nH]c(=O)c3cc(F)c(F)cc3c21 (single isomer, unassigned) [Compound 122, 6-Chloro-N-(8,9-difluoro-6-oxo-1,2,3,4,5,6-hexahydrobenzo[c][1,7]naphthyridin-1-yl)-N-methylindolizine-2-carboxamide] |  | 1200
CN(C(=O)c1ccc(-c2cccc(F)c2)cc1)C1CNCc2[nH]c(=O)c3cc(F)c(F)cc3c21 (single isomer, unassigned) [Compound 302, N-(8,9-Difluoro-6-oxo-1,2,3,4,5,6-hexahydrobenzo[c][1,7]naphthyridin-1-yl)-3′-fluoro-N-methyl-[1,1′-biphenyl]-4-carboxamide] |  | 1060
CN(C(=O)c1cc(F)cc(-c2cccc(F)c2)c1)[C@@H]1COCc2[nH]c(=O)c3cc(F)c(F)cc3c21 [Compound 291, (S)-N-(8,9-Difluoro-6-oxo-1,4,5,6-tetrahydro-2H-pyrano[3,4-c]isoquinolin-1-yl)-3′,5-difluoro-N-methyl-[1,1′-biphenyl]-3-carboxamide] | 10100 | 
CN(C(=O)c1cc2ccc(C(F)F)cn2c1)[C@@H]1COCc2[nH]c(=O)c3cc(F)c(F)cc3c21 [Compound 375, (S)-N-(8,9-Difluoro-6-oxo-1,4,5,6-tetrahydro-2H-pyrano[3,4-c]isoquinolin-1-yl)-6-(difluoromethyl)-N-methylindolizine-2-carboxamide] | 330 | 
CCN(C(=O)c1cn2cc(Cl)ccc2n1)[C@@H]1COCc2[nH]c(=O)c3cc(F)ccc3c21 [Compound 53, (S)-6-Chloro-N-ethyl-N-(8-fluoro-6-oxo-1,4,5,6-tetrahydro-2H-pyrano[3,4-c]isoquinolin-1-yl)imidazo[1,2-a]pyridine-2-carboxamide] | 2500 | 
CN(C(=O)C1Cc2ccc(F)cc21)[C@@H]1COCc2[nH]c(=O)c3cc(F)c(F)cc3c21 (stereo partly drawn) [Compound 279, N-((S)-8,9-Difluoro-6-oxo-1,4,5,6-tetrahydro-2H-pyrano[3,4-c]isoquinolin-1-yl)-4-fluoro-N-methylbicyclo[4.2.0]octa-1(6),2,4-triene-7-carboxamide] | 9500 | 
CN(C(=O)c1cc(-c2ccc(F)cc2)on1)[C@@H]1COCc2[nH]c(=O)c3cc(F)c(F)cc3c21 [Compound 263, (S)-N-(8,9-Difluoro-6-oxo-1,4,5,6-tetrahydro-2H-pyrano[3,4-c]isoquinolin-1-yl)-5-(4-fluorophenyl)-N-methylisoxazole-3-carboxamide] | 14700 | 
CN(C(=O)c1cc2ccccc2[nH]1)C1CCCc2[nH]c(=O)c3cc(F)c(F)cc3c21 (single isomer, unassigned) [Compound 467, N-(8,9-Difluoro-6-oxo-1,2,3,4,5,6-hexahydrophenanthridin-1-yl)-N-methyl-1H-indole-2-carboxamide] |  | 10
CN(C(=O)c1ccc(F)c(Br)c1)[C@@H]1COCc2[nH]c(=O)c3cc(F)c(F)cc3c21 [Compound 130, (S)-3-Bromo-N-(8,9-difluoro-6-oxo-1,4,5,6-tetrahydro-2H-pyrano[3,4-c]isoquinolin-1-yl)-4-fluoro-N-methylbenzamide] | 10 | 
CN(C(=O)c1cnn(-c2ccc(F)cc2)c1)[C@@H]1COCc2[nH]c(=O)c3cc(F)c(F)cc3c21 [Compound 234, (S)-N-(8,9-Difluoro-6-oxo-1,4,5,6-tetrahydro-2H-pyrano[3,4-c]isoquinolin-1-yl)-1-(4-fluorophenyl)-N-methyl-1H-pyrazole-4-carboxamide] | 10500 | 
CN(C(=O)c1cc2cccnn2c1)[C@@H]1COCc2[nH]c(=O)c3cc(F)c(F)cc3c21 [Compound 65, (S)-N-(8,9-Difluoro-6-oxo-1,4,5,6-tetrahydro-2H-pyrano[3,4-c]isoquinolin-1-yl)-N-methylpyrrolo[1,2-b]pyridazine-6-carboxamide] | 150 | 
CN(C(=O)c1cc2c([nH]1)CCC(F)(F)C2)C1COCc2[nH]c(=O)c3cc(F)c(F)cc3c21 (single isomer, unassigned) [Compound 47, N-(8,9-Difluoro-6-oxo-1,4,5,6-tetrahydro-2H-pyrano[3,4-c]isoquinolin-1-yl)-5,5-difluoro-N-methyl-4,5,6,7-tetrahydro-1H-indole-2-carboxamide] |  | 20
CN(C(=O)c1ccc2c(cnn2C(F)F)c1)[C@@H]1COCc2[nH]c(=O)c3cc(F)c(F)cc3c21 [Compound 437, (S)-N-(8,9-Difluoro-6-oxo-1,4,5,6-tetrahydro-2H-pyrano[3,4-c]isoquinolin-1-yl)-1-(difluoromethyl)-N-methyl-1H-indazole-5-carboxamide] | 5 | 
CN(C(=O)c1cc2sc(F)cc2[nH]1)C1CNCc2[nH]c(=O)c3cc(F)c(F)cc3c21 (single isomer, unassigned) [Compound 500, N-(8,9-difluoro-6-oxo-1,2,3,4,5,6-hexahydrobenzo[c][1,7]naphthyridin-1-yl)-2-fluoro-N-methyl-4H-thieno[3,2-b]pyrrole-5-carboxamide] |  | 30
CN(C(=O)c1cc2c(C(F)F)cc(F)cc2[nH]1)[C@@H]1CCCc2[nH]c(=O)c3cc(F)ccc3c21 [Compound 493, (R)-4-(difluoromethyl)-6-fluoro-N-(8-fluoro-6-oxo-1,2,3,4,5,6-hexahydrophenanthridin-1-y1)-N-methyl-1H-indole-2-carboxamide] | 10 | 
CN(C(=O)c1ccc2c(c1)c(Cl)nn2C(F)F)[C@@H]1COCc2[nH]c(=O)c3cc(F)c(F)cc3c21 [Compound 359, (S)-3-chloro-N-(8,9-difluoro-6-oxo-1,4,5,6-tetrahydro-2H-pyrano[3,4-c]isoquinolin-1-yl)-1-(difluoromethyl)-N-methyl-1H-indazole-5-carboxamide] | 10 | 
CN(C(=O)c1cc2ccsc2[nH]1)[C@@H]1COCc2[nH]c(=O)c3cc(F)c(F)cc3c21 [Compound 294, (S)-N-(8,9-Difluoro-6-oxo-1,4,5,6-tetrahydro-2H-pyrano[3,4-c]isoquinolin-1-yl)-N-methyl-6H-thieno[2,3-b]pyrrole-5-carboxamide] | 50 | 
CN(C(=O)c1ccc2c(c1)CCC2)C1COCc2[nH]c(=O)c3cc(F)ccc3c21 (single isomer, unassigned) [Compound 442, N-(8-Fluoro-6-oxo-1,4,5,6-tetrahydro-2H-pyrano[3,4-c]isoquinolin-1-yl)-N-methyl-2,3-dihydro-1H-indene-5-carboxamide] |  | 19000
